# According to US10071974B2, “Morpholine and 1,4-oxazepane amides as somatostatin receptor subtype 4 (SSTR4) agonists” (Boehringer Ingelheim International GmbH, priority 2014, dated 2018):
# Like-named read-outs stand apart in the source and are kept apart here.
# Columns and labels:
# [1] = human, microsomes
# [2] = Metabolic stability in pooled human liver microsomes; conditions: 1 μM test compound, 37° C.
# [3] = target: human Somatostatin 4 Receptor (SSTR4) (Homo sapiens (Human), UniProt P31391); experiment: cAMP assay with human somatostatin 4 receptor (hSSTR4 expressing H4 cells); type: cell-based; conditions: read-out: SSTR4 agonism EC50
# Sequence of human Somatostatin 4 Receptor (SSTR4) (P31391 whole entry): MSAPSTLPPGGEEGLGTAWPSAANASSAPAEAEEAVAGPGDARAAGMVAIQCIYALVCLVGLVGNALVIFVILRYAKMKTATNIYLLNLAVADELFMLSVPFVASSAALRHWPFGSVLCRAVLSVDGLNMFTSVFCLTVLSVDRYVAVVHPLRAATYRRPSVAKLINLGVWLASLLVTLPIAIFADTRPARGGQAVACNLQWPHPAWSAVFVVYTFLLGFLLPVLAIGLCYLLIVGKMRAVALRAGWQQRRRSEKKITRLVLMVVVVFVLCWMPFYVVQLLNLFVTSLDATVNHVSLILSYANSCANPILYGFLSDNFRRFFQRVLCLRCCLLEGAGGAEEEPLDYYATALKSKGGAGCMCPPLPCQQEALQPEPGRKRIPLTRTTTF
Compound,Half-life t1/2 [1],Half-life t1/2 [2],EC50 [3]
"CC(C)(NC(=O)C1CNCCOC1)c1noc2c(Cl)cccc12 (single isomer, unassigned) [Example 73]",>2.17 h,,
Cn1nc(C(C)(C)NC(=O)[C@@H]2CNCCO2)c2cccc(Cl)c21 [Example 79],,1.67 h,
Cc1cccc2c(C(C)(C)NC(=O)[C@@H]3CNCCO3)nn(C)c12 [Example 83],,>2.17 h,4.1 nM
